Measured values as given in paper PMC4742970 (Nature Communications, 2016).

Columns and labels:
Msh2–Msh3 (Msh2HA–Msh3) [1] = target: T1, Msh2–Msh3 (Msh2HA–Msh3) (Saccharomyces cerevisiae, UniProt P25336+P25847); assay: single-molecule diffusion on DNA curtains (TIRF); type: binding; conditions: 1 mM ADP, 50 mM NaCl, 40 mM Tris-HCl pH 8; functional effect on diffusion along homoduplex DNA
T1 construct: heterodimer overexpressed in and purified from yeast; labelled with anti-HA quantum dots in single-molecule tests
T1 sequence (P25847 1-964): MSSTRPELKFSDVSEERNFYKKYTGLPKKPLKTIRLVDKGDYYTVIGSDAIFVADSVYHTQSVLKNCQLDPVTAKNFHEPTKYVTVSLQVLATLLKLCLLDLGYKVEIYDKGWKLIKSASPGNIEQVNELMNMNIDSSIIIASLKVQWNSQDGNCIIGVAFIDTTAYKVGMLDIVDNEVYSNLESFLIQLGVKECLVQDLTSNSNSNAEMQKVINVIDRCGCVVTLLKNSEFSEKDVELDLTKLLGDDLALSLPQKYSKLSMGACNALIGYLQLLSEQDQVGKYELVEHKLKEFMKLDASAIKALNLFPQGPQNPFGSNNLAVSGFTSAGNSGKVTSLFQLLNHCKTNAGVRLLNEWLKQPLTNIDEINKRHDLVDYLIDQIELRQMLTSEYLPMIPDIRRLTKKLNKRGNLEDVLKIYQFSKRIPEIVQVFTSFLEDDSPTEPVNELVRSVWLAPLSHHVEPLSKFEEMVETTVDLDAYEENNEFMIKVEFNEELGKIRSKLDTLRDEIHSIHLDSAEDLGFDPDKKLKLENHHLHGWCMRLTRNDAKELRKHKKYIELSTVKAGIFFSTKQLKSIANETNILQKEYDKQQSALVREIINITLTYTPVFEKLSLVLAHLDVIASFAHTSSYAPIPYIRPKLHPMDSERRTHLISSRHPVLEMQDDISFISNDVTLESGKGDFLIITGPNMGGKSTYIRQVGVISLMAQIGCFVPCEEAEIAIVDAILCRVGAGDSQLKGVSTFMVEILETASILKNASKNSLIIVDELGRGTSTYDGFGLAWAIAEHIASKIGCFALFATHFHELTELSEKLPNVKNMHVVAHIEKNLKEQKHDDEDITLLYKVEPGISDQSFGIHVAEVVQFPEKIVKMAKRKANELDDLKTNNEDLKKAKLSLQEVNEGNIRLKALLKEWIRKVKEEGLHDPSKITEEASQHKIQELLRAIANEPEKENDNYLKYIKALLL
T1 sequence (P25336 1-1018): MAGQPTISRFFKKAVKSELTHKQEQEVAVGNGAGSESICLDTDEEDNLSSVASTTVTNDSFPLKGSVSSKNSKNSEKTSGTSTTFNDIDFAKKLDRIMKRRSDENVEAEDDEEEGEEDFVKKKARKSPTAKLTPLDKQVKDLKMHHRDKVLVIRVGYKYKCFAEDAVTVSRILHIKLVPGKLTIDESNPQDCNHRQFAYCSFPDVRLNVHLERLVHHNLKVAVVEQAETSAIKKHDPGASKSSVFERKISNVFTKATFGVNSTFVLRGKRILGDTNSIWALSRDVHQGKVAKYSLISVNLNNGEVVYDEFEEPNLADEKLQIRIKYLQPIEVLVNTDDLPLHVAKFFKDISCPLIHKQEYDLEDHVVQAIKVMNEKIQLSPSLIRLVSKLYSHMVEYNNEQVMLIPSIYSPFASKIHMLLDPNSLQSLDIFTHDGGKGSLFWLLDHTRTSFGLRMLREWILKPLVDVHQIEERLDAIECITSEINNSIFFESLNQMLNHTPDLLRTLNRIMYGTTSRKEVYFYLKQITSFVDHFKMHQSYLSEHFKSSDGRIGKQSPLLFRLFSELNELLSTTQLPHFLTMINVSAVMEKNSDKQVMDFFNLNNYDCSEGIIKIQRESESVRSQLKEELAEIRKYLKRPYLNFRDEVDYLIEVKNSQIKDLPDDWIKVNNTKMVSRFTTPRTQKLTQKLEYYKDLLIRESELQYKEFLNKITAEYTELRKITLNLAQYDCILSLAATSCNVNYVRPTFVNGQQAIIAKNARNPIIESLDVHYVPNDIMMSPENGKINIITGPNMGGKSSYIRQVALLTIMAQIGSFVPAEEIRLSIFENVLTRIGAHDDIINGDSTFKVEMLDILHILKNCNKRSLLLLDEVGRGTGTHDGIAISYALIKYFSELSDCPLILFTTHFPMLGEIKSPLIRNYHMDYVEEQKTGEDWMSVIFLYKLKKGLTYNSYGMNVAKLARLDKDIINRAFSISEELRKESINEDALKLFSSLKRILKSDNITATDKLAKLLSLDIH

Msh2–Msh3 (Msh2HA–Msh3) [2] = target: T1, Msh2–Msh3 (Msh2HA–Msh3); assay: ATPase assay, gamma-32P-ATP, PEI-cellulose TLC; type: biochemical; conditions: 20-250 μM ATP, 2 mM MgCl2, pH 7.5, 30 °C, 100 nM protein, with or without 2 μM DNA
Msh2(HA)-Msh3 = Msh2(HA)-Msh3 (Saccharomyces cerevisiae, UniProt P25847;P25336 1-964;1-1018); assay: EMSA; no antibody or QD; EMSA: 20 mM HEPES pH 7.5, 100 mM NaCl, 1 mM DTT, 40 ug/ml BSA, 2 mM MgCl2, RT; curtains: 40 mM Tris-HCl pH 8, 25-150 mM NaCl, 2 mM MgCl2, 1-2 mM DTT, 0.2 mg/ml

Nc1ncnc2c1ncn2[C@@H]1O[C@H](COP(=O)(O)OP(=O)(O)O)[C@@H](O)[C@H]1O [ADP]
single-molecule diffusion on DNA curtains (TIRF) (Msh2–Msh3 (Msh2HA–Msh3) [1]): Here we show that ADP and ATP also alter the interactions of the yeast Msh2–Msh3

Nc1ncnc2c1ncn2[C@@H]1O[C@H](COP(=O)(O)OP(=O)(O)OP(=O)(O)O)[C@@H](O)[C@H]1O [ATP]
ATPase assay, gamma-32P-ATP, PEI-cellulose TLC (Msh2–Msh3 (Msh2HA–Msh3) [2]): Gel shift and ATPase assays indicated that the QD-tagged Msh2–Msh3 retained biochemical activities

B1: 3'-ssDNA flap LS1/LS3/LS16 (mixed)
DNA 1: CACGCTACCGAATTCTGACTTGCTAGGACATCTTTGCCCACGTTGACCC
DNA 2: TCGATAGTCTCTAGATAGCATGTCCTAGCAAGTCAGAATTCGGTAGCGTG
DNA 3: GCTATCTAGAGACTATCGA
binding result (Msh2(HA)-Msh3): binds
